Here are results for five substances from patent publication US20110217260A1, “METHOD OF ENHANCING EYELASH AND EYE BROW HAIR GROWTH” (priority 2010, published 2011).

Where two headings read alike, the source gives them in different places.

The subject of data set [1] is cultured human hair follicles. Particulars: cited from earlier work; for Effect on hair follicle growth in the absence of insulin: IGF-I and IGF-II 0.01-100 ng/ml; for Effect on hair follicle growth in the presence of insulin: 10 micrograms/ml insulin present; for Preventing hair follicles from entering a catagen-like state, compared with insulin / Rate of hair follicle growth compared with 10 micrograms/ml insulin: IGF-I 10 ng/ml, IGF-II 100 ng/ml.

The test system of another data set is eyelash hair follicles. Put plainly: Eyelash hair growth / hair follicle transplant after topical application. It counts as in vivo. As to conditions: insulin alone, no second hypertrichosis agent. An excerpt:
Step 4: Apply selected hair growth therapeutic agent if need be such as minoxidil or prostaglandin derived hair growth promoters which are already approved for hair growth of the eyelashes. […] Apply the clean dressing on the wound if need be.
Step 4: Apply selected hair growth therapeutic agent using PGF 2α, and analogues. Using these hair growing prostaglandins after pretreatment of the eye lids site with insulin results in much more rapid hair growth compared to when applied without insulin.

For the next data set, the system named is indolent ulcers. Put plainly: Local insulin on indolent ulcers, wound healing. As to conditions: insulin spray on indolent ulcers, unpublished data. Format: in vivo. The source says:
We have used insulin for more than a decade to enhance the effectiveness of locally injected therapeutic agents specially cancers with chemotherapeutic agents with remarkable results. Our unpublished data also supports that the insulin spray on indolent ulcers anywhere in the body, including the oral (gums) and nasal cavity. […] Application of insulin soaked cotton swabs (1-3 units in normal saline) after teeth extraction induces rapid healing with reduced pain.

In data set [2] the test system is MCF-7 human breast cancer cells. Particulars: MCF-7 cells; cited from earlier work.
The text on data set [3]:
Discontinue the treatment till it disappears and restart the program. Latisse needs a prescription from a doctor in order to purchase Latisse like you would get any other medication. […] If one develops hypoglycemic symptoms due to any number of reasons, drink a sugar drink, eat a candy, or fruit cocktail.

For data set [4] the following is noted: in vivo; cited from earlier work.

Take “Growth hormone: growth hormone (somatotropin)”: the “Effect on hair follicle growth in the absence of insulin” value (“Effect … in the absence of insulin” below) in data set [1] is recorded as “no effect on hair follicle growth or morphology”.
Take “IGF-I: insulin-like growth factor 1, a growth hormone believed to work with androgens to initiate and maintain hair growth”: in data set [1], the “Effect on hair follicle growth in the presence of insulin” value is given as “no significant effect on hair follicle growth”; the “Preventing hair follicles from entering a catagen-like state, compared with insulin” value is “more potent than insulin”; the “Rate of hair follicle growth compared with 10 micrograms/ml insulin” value is given as “identical”; the “Effect … in the absence of insulin” value was “stimulated hair follicle growth in a dose-dependent manner”. The “Concentration giving maximum rates of hair follicle growth” value (from here on “Concentration giving maximum rates”) in data set [1] (in the absence of insulin) is 10 ng/mL.
In the case of IGF-II: Insulin-like growth factor II, in data set [1], the “Effect on hair follicle growth in the presence of insulin” value is on record as “no significant effect on hair follicle growth”; the “Preventing hair follicles from entering a catagen-like state, compared with insulin” value is given as “more potent than insulin”; the “Rate of hair follicle growth compared with 10 micrograms/ml insulin” value is recorded as “unable to stimulate hair follicle growth to the same extent as insulin”; the “Effect … in the absence of insulin” value is “stimulated hair follicle growth in a dose-dependent manner”. Moreover, in data set [1] (in the absence of insulin), the “Concentration giving maximum rates” value was 100 ng/mL.
As to “Insulin: hormone secreted by beta cells in the islets of Langerhans in the pancreas”, the “Concentration giving maximum rates” value in data set [1] (follicles maintained in medium containing insulin) was 10 micrograms/ml. The “Effect of insulin on hair follicle growth” value in data set [1] (range of 0.01 to 100 micrograms/ml) is recorded as “stimulated hair follicle growth in a dose-dependent manner”. Further, the “Wound healing, uptake and growth of hair follicle transplant” value in the data set with eyelash hair follicles is “enough to facilitate rapid wound healing along with uptake and growth of hair follicle transplant”. Further, the Wound healing entry in the data set with indolent ulcers was “accelerated wound healing”. Moreover, the “Increase of the cytotoxic effect of methotrexate” value in data set [2] is given as “up to 10,000 fold”. Moreover, the Hypoglycemia entry in data set [3] (after application of insulin to the eye lids) was “none of our cases developed hypoglycemia”. Also, the “Darkening of the eye lids” value in data set [3] (insulin alone) is on record as “did not result in any appreciable darkening of the eye lids”.
Regarding “Regular (R) humulin or novolin: Short-acting insulin”, in data set [4], the Duration of action was 5 to 8 h, the Onset of action was 30 to 60 min and the Peak effect is 2 to 5 h.
